ChEMBL document CHEMBL5532748, “Design, synthesis and antibacterial activity evaluation of ebselen derivatives in NDM-1 producing bacteria” (RSC Med Chem, 2024)

Legend:
[1] = system: Escherichia coli; assay: Antibacterial activity against Escherichia coli TG-1 transfected with Klebsiella pneumoniae full-length NDM-1 beta-lactamase gene; assay type: functional
[2] = system: Escherichia coli; assay: Antibacterial activity against Escherichia coli TG-1 transfected with Klebsiella pneumoniae full-length NDM-1 beta lactamase gene incubated in presence of meropenem; assay type: functional
[3] = system: Escherichia coli; assay: Synergistic antibacterial activity against Escherichia coli TG-1 transfected with Klebsiella pneumoniae full-length NDM-1 beta lactamase gene assessed as fractional inhibitory concentration index in presence of meropenem; assay type: functional
[4] = system: Escherichia coli; assay: Antibacterial activity against Escherichia coli BJE-4 expressing NDM-1 gene; assay type: functional
[5] = system: Escherichia coli; assay: Antibacterial activity against Escherichia coli BJE-4 expressing NDM-1 gene in presence of meropenem; assay type: functional
[6] = system: Escherichia coli; assay: Synergistic antibacterial activity against Escherichia coli BJE-4 expressing NDM-1 gene assessed as fractional inhibitory concentration index in presence of meropenem; assay type: functional
[7] = molecular target: Metallo-beta-lactamase type 2 (Bacteria, UniProt C7C422); assay: Inhibition of NDM-1 (unknown origin) using nitrocefin as substrate incubated for 15 to 60 mins by absorption based analysis
Metallo-beta-lactamase type 2, sequence (C7C422 whole entry): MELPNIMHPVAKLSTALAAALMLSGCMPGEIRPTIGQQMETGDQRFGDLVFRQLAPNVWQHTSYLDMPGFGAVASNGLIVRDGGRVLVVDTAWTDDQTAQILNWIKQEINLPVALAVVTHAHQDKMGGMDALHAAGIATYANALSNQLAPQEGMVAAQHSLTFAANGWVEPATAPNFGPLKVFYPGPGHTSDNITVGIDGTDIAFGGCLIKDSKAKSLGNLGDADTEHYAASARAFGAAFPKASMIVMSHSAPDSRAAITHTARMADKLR

[8] = system: HEK-293T; assay: Cytotoxicity against HEK293T cells assessed as reduction in cell viability at 8 to 64 ug/ml incubated for 48 hrs by MTT assay; assay type: toxicity, cell-based; details: human, dose 8-64 µg/ml

SMILES | MIC [1] | MIC [2] | fractional inhibitory concentration index (FICI) [3] | MIC [4] | MIC [5] | fractional inhibitory concentration index (FICI) [6] | IC50 [7] | Activity [8]
COC(=O)c1ccc(-n2[se]c3ccccc3c2=O)cc1OC | > 64 µg/mL | ≤ 8 µg/mL | 0.25 | > 16 µg/mL | 4 µg/mL | 0.313 | 7.81 µM | Non-Toxic
CC(C)(C)c1ccc(S(=O)(=O)NCCn2[se]c3ccccc3c2=O)cc1 | > 64 µg/mL | ≤ 8 µg/mL | 0.25 | > 16 µg/mL | 8 µg/mL | 0.625 |  | 
COC(=O)c1ccc(-n2[se]c3ccccc3c2=O)cc1C | > 64 µg/mL | 16 µg/mL | 0.5 | > 16 µg/mL | 8 µg/mL | 0.625 |  | 
COC(=O)c1cccc(-n2[se]c3ccccc3c2=O)c1 | > 64 µg/mL | ≤ 8 µg/mL | 0.25 | > 16 µg/mL | 8 µg/mL | 0.625 | 3.63 µM | 
O=c1c2ccccc2[se]n1CCNS(=O)(=O)c1ccc(Cl)c([N+](=O)[O-])c1 | > 64 µg/mL | 16 µg/mL | 0.5 | > 16 µg/mL | 8 µg/mL | 0.625 |  | 
CS(=O)(=O)c1ccc(-n2[se]c3ccccc3c2=O)cc1 | > 64 µg/mL | ≤ 8 µg/mL | 0.25 | > 16 µg/mL | 8 µg/mL | 0.625 | 7.29 µM | 
